Test system: hAPP transgenic mice
Assay: Extent of CAA in brain sections of hAPP transgenic mice after 8 weeks of treatment, Thioflavin S staining
Format: in vivo
Conditions: for # of animals with CAA: nine week old hAPP transgenic mice
Protocol: The ability of compounds of the invention to inhibit CAA was measured in the following example. Nine week old hAPP transgenic mice were treated for a period of 8 weeks with two different concentrations of a compound of the present invention, 3-amino-1-propanesulfonic acid, sodium salt, 100 and 30 mg/kg. Mice were administered the compound for 8 weeks, after which they were sacrificed and their brains were perfused and processed for histological staining with Thioflavin S. This method may also be used as a screening method for determining activity of a candidate compound for inhibiting CAA.
The extent of CAA in brain sections obtained from these animals was qualitatively determined following staining.

[1] = 100 mg/kg (printed 100 mg · kg), hAPP transgenic mice
[2] = 100 and 30 mg/kg, hAPP transgenic mice, versus vehicle

For `NCCCS(=O)(=O)[O-].[Na+]` [3-amino-1-propanesulfonic acid, sodium salt], the “CAA Severity + (slight deposition), animals with grade/animals with CAA” value (30 mg/kg, hAPP transgenic mice) was 6/10, the “CAA Severity ++ (moderate deposition), animals with grade/animals with CAA” value (30 mg/kg, hAPP transgenic mice) was 4/10 and the CAA animals/total animals (30 mg/kg, hAPP transgenic mice) was 10/11. The “# of animals with CAA” value (30 mg/kg, 11 animals in study) was 10, the “CAA Severity + (slight deposition), animals with grade/animals with CAA” value [1] was 9/10 and the “CAA Severity +++ (severe deposition), animals with grade/animals with CAA” value [1] was 1/10. For the same compound, the CAA animals/total animals [1] was 10/15, the “# of animals with CAA” value (100 mg/kg (printed 100 mg · kg), 15 animals in study) was 10 and the “effect on the severity of the deposition seen in the brain vasculature” value [2] was “showing an effect”. For the same compound, the “reducing the number of mice showing CAA” value [2] was “effective”.
